tested on: Human orthopneumovirus; assay: not given; details: hep-2

Row | SMILES | EC50 [nM]
1 | CCC(CC)COC(=O)[C@H](C)N[P@](=O)(OC[C@H]1O[C@@](C#N)(c2ccc3c(N)ncnn23)[C@H](O)[C@@H]1O)Oc1ccccc1 (stereo in doubt) | 15

tested on: Respiratory syncytial virus; assay: not given; details: primary bronchial epithelial cell

Row | SMILES | EC50 [nM]
2 | CCC(CC)COC(=O)[C@H](C)N[P@](=O)(OC[C@H]1O[C@@](C#N)(c2ccc3c(N)ncnn23)[C@H](O)[C@@H]1O)Oc1ccccc1 (stereo in doubt) | 49

tested on: not listed separately; assay: cells; details: Homo sapiens, HEp-2, 48 h

Row | SMILES | IC50 [nM]
3 | CCC(CC)COC(=O)[C@H](C)N[P@](=O)(OC[C@H]1O[C@@](C#N)(c2ccc3c(N)ncnn23)[C@H](O)[C@@H]1O)Oc1ccccc1 (stereo in doubt) | 110
4 | N#C[C@@]1(c2ccc3c(N)ncnn23)O[C@H](CO)[C@@H](O)[C@H]1O [GS-441524] | 350

tested on: not listed separately; assay: cells; details: Homo sapiens, Primary bronchial epithelial cell, 48 h

Row | SMILES | IC50 [nM]
5 | CCC(CC)COC(=O)[C@H](C)N[P@](=O)(OC[C@H]1O[C@@](C#N)(c2ccc3c(N)ncnn23)[C@H](O)[C@@H]1O)Oc1ccccc1 (stereo in doubt) | 140
6 | N#C[C@@]1(c2ccc3c(N)ncnn23)O[C@H](CO)[C@@H](O)[C@H]1O [GS-441524] | 220

tested on: not listed separately; assay: in vivo; details: cynomolgus monkey, iv, 10 mg/kg

Row | SMILES | clearance at 0.5 h [mL/min/kg]
7 | CCC(CC)COC(=O)[C@H](C)N[P@](=O)(OC[C@H]1O[C@@](C#N)(c2ccc3c(N)ncnn23)[C@H](O)[C@@H]1O)Oc1ccccc1 (stereo in doubt) | 32

tested on: not listed separately; assay: in vivo; details: cynomolgus monkey, iv, 10 mg/kg; remark: another data set of the same source

Row | SMILES | Vd at 0.5 h [L/kg]
8 | CCC(CC)COC(=O)[C@H](C)N[P@](=O)(OC[C@H]1O[C@@](C#N)(c2ccc3c(N)ncnn23)[C@H](O)[C@@H]1O)Oc1ccccc1 (stereo in doubt) | 0.45

tested on: not listed separately; assay: in vivo; details: Sprague-Dawley, rat, po, 8 mg/kg

Row | SMILES | bioavailability [%]
9 | CC(C)C(=O)OC[C@H]1O[C@@](C#N)(c2ccc3c(N)ncnn23)[C@H](OC(=O)C(C)C)[C@@H]1OC(=O)C(C)C | 57
10 | N#C[C@@]1(c2ccc3c(N)ncnn23)O[C@H](CO)[C@@H](O)[C@H]1O [GS-441524] | 12

tested on: not listed separately; assay: in vivo; details: dog, po

Row | SMILES | bioavailability [%]
11 | N#C[C@@]1(c2ccc3c(N)ncnn23)O[C@H](CO)[C@@H](O)[C@H]1O [GS-441524] | 89

tested on: not listed separately; assay: in vivo; details: cynomolgus monkey, po, 20 mg/kg

Row | SMILES | bioavailability [%]
12 | CC(C)C(=O)OC[C@H]1O[C@@](C#N)(c2ccc3c(N)ncnn23)[C@H](OC(=O)C(C)C)[C@@H]1OC(=O)C(C)C | 28
13 | CCC(CC)COC(=O)[C@H](C)N[P@](=O)(OC[C@H]1O[C@@](C#N)(c2ccc3c(N)ncnn23)[C@H](O)[C@@H]1O)Oc1ccccc1 (stereo in doubt) | < 1
14 | N#C[C@@]1(c2ccc3c(N)ncnn23)O[C@H](CO)[C@@H](O)[C@H]1O [GS-441524] | 3.4

tested on: not listed separately; assay: in vivo; details: chlorocebus sabaeus, iv, 10 mg/kg

Row | SMILES | clearance at 0.5 h [mL/min/kg]
15 | CCC(CC)COC(=O)[C@H](C)N[P@](=O)(OC[C@H]1O[C@@](C#N)(c2ccc3c(N)ncnn23)[C@H](O)[C@@H]1O)Oc1ccccc1 (stereo in doubt) | 35.5

tested on: not listed separately; assay: in vivo; details: chlorocebus sabaeus, iv, 10 mg/kg; remark: another data set of the same source

Row | SMILES | Vd at 0.5 h [L/kg]
16 | CCC(CC)COC(=O)[C@H](C)N[P@](=O)(OC[C@H]1O[C@@](C#N)(c2ccc3c(N)ncnn23)[C@H](O)[C@@H]1O)Oc1ccccc1 (stereo in doubt) | 0.94

tested on: not listed separately; assay: in vivo; details: chlorocebus sabaeus, iv, 10 mg/kg; remark: another data set of the same source

Row | SMILES | half-life at 0.5 h [min]
17 | CCC(CC)COC(=O)[C@H](C)N[P@](=O)(OC[C@H]1O[C@@](C#N)(c2ccc3c(N)ncnn23)[C@H](O)[C@@H]1O)Oc1ccccc1 (stereo in doubt) | 48

tested on: not listed separately; assay: in vivo; details: chlorocebus sabaeus, iv, 10 mg/kg; remark: another data set of the same source

Row | SMILES | Cmax at 0.5 h [µM]
18 | CCC(CC)COC(=O)[C@H](C)N[P@](=O)(OC[C@H]1O[C@@](C#N)(c2ccc3c(N)ncnn23)[C@H](O)[C@@H]1O)Oc1ccccc1 (stereo in doubt) | 12.6

tested on: not listed separately; assay: in vivo; details: chlorocebus sabaeus, iv, 10 mg/kg; remark: another data set of the same source

Row | SMILES | AUC(0-inf) at 0.5 h [µM·h]
19 | CCC(CC)COC(=O)[C@H](C)N[P@](=O)(OC[C@H]1O[C@@](C#N)(c2ccc3c(N)ncnn23)[C@H](O)[C@@H]1O)Oc1ccccc1 (stereo in doubt) | 7.9

tested on: not listed separately; assay: in vivo; details: cynomolgus monkey, iv, 20 mg/kg

Row | SMILES | Cmax at 0.5 h [µM]
20 | N#C[C@@]1(c2ccc3c(N)ncnn23)O[C@H](CO)[C@@H](O)[C@H]1O [GS-441524] | 79.2

tested on: not listed separately; assay: in vivo; details: cynomolgus monkey, iv, 20 mg/kg; remark: another data set of the same source

Row | SMILES | AUC(0-inf) at 0.5 h [µM·h]
21 | N#C[C@@]1(c2ccc3c(N)ncnn23)O[C@H](CO)[C@@H](O)[C@H]1O [GS-441524] | 123

tested on: not listed separately; assay: in vivo; details: cynomolgus monkey, iv, 10 mg/kg; remark: another data set of the same source

Row | SMILES | half-life at 0.5 h [min]
22 | CCC(CC)COC(=O)[C@H](C)N[P@](=O)(OC[C@H]1O[C@@](C#N)(c2ccc3c(N)ncnn23)[C@H](O)[C@@H]1O)Oc1ccccc1 (stereo in doubt) | 24

tested on: not listed separately; assay: in vivo; details: cynomolgus monkey, iv, 10 mg/kg; remark: another data set of the same source

Row | SMILES | Cmax at 0.5 h [µM]
23 | CCC(CC)COC(=O)[C@H](C)N[P@](=O)(OC[C@H]1O[C@@](C#N)(c2ccc3c(N)ncnn23)[C@H](O)[C@@H]1O)Oc1ccccc1 (stereo in doubt) | 22.7

tested on: not listed separately; assay: in vivo; details: cynomolgus monkey, iv, 10 mg/kg; remark: another data set of the same source

Row | SMILES | AUC(0-inf) at 0.5 h [µM·h]
24 | CCC(CC)COC(=O)[C@H](C)N[P@](=O)(OC[C@H]1O[C@@](C#N)(c2ccc3c(N)ncnn23)[C@H](O)[C@@H]1O)Oc1ccccc1 (stereo in doubt) | 8.8

tested on: not listed separately; assay: in vitro; details: human, HEp-2 cells

Row | SMILES | CC50 [nM]
25 | C[C@H](NP(=O)(OC[C@H]1O[C@@](C#N)(c2ccc3c(N)ncnn23)[C@H](O)[C@@H]1O)Oc1ccccc1)C(=O)OCC1CCC1 (some centres not stated) | 23000
26 | CC(C)[C@H](N)C(=O)OC[C@H]1O[C@@](C#N)(c2ccc3c(N)ncnn23)[C@H](O)[C@@H]1O | > 100000
27 | C[C@H](NP(=O)(OC[C@H]1O[C@@](C#N)(c2ccc3c(N)ncnn23)[C@H](O)[C@@H]1O)Oc1ccccc1)C(=O)OC1CCCCCCC1 (some centres not stated) | 48000
28 | CC(C)C(=O)OC[C@H]1O[C@@](C#N)(c2ccc3c(N)ncnn23)[C@H](OC(=O)C(C)C)[C@@H]1OC(=O)C(C)C | 81000
29 | N#C[C@@]1(c2ccc3c(N)ncnn23)O[C@H](CO)[C@@H](O)[C@H]1O [GS-441524] | > 100000

tested on: not listed separately; assay: in vitro; details: human, Huh-7 cells

Row | SMILES | CC50 at 72 h [nM]
30 | N#C[C@@]1(c2ccc3c(N)ncnn23)O[C@H](CO)[C@@H](O)[C@H]1O [GS-441524] | > 89000

tested on: not listed separately; assay: in vitro; details: human, MT4 cells

Row | SMILES | CC50 at 120 h [nM]
31 | N#C[C@@]1(c2ccc3c(N)ncnn23)O[C@H](CO)[C@@H](O)[C@H]1O [GS-441524] | > 50000

tested on: not listed separately; assay: in vitro; details: human, Caco-2

Row | SMILES | Papp A→B [×10⁻⁶ cm/s]
32 | CC(C)[C@H](N)C(=O)OC[C@H]1O[C@@](C#N)(c2ccc3c(N)ncnn23)[C@H](O)[C@@H]1O | 0.55
33 | N#C[C@@]1(c2ccc3c(N)ncnn23)O[C@H](CO)[C@@H](O)[C@H]1O [GS-441524] | 0.17

tested on: not listed separately; assay: in vitro; details: human, Caco-2; remark: another data set of the same source

Row | SMILES | Papp B→A [×10⁻⁶ cm/s]
34 | CC(C)[C@H](N)C(=O)OC[C@H]1O[C@@](C#N)(c2ccc3c(N)ncnn23)[C@H](O)[C@@H]1O | 0.45
35 | CC(C)C(=O)OC[C@H]1O[C@@](C#N)(c2ccc3c(N)ncnn23)[C@H](OC(=O)C(C)C)[C@@H]1OC(=O)C(C)C | 1.5
36 | N#C[C@@]1(c2ccc3c(N)ncnn23)O[C@H](CO)[C@@H](O)[C@H]1O [GS-441524] | 2.1

tested on: not listed separately; assay: in vitro; details: human, HEp-2 cells; remark: another data set of the same source

Row | SMILES | selectivity ratio
37 | C[C@H](NP(=O)(OC[C@H]1O[C@@](C#N)(c2ccc3c(N)ncnn23)[C@H](O)[C@@H]1O)Oc1ccccc1)C(=O)OCC1CCC1 (some centres not stated) | 958
38 | C[C@H](NP(=O)(OC[C@H]1O[C@@](C#N)(c2ccc3c(N)ncnn23)[C@H](O)[C@@H]1O)Oc1ccccc1)C(=O)OC1CCCCCCC1 (some centres not stated) | 1710

tested on: not listed separately; assay: clinical; details: human, in vivo, iv, 75 mg

Row | SMILES | Cmax at 0.5 h [µM]
39 | CCC(CC)COC(=O)[C@H](C)N[P@](=O)(OC[C@H]1O[C@@](C#N)(c2ccc3c(N)ncnn23)[C@H](O)[C@@H]1O)Oc1ccccc1 (stereo in doubt) | 5

tested on: not listed separately; assay: clinical; details: human, in vivo, iv, 75 mg; remark: another data set of the same source

Row | SMILES | Cmax at 1 h [µM]
40 | CCC(CC)COC(=O)[C@H](C)N[P@](=O)(OC[C@H]1O[C@@](C#N)(c2ccc3c(N)ncnn23)[C@H](O)[C@@H]1O)Oc1ccccc1 (stereo in doubt) | < 1

tested on: Human orthopneumovirus; assay: microbe, parasite or virus in culture; details: human respiratory syncytial virus, A2, HEp-2, 96 h

Row | SMILES | EC50 [nM]
41 | C[C@H](NP(=O)(OC[C@H]1O[C@@](C#N)(c2ccc3c(N)ncnn23)[C@H](O)[C@@H]1O)Oc1ccccc1)C(=O)OCC1CCC1 (some centres not stated) | 24
42 | CC(C)[C@H](N)C(=O)OC[C@H]1O[C@@](C#N)(c2ccc3c(N)ncnn23)[C@H](O)[C@@H]1O | 1110
43 | C[C@H](NP(=O)(OC[C@H]1O[C@@](C#N)(c2ccc3c(N)ncnn23)[C@H](O)[C@@H]1O)Oc1ccccc1)C(=O)OC1CCCCCCC1 (some centres not stated) | 28
44 | CC(C)C(=O)OC[C@H]1O[C@@](C#N)(c2ccc3c(N)ncnn23)[C@H](OC(=O)C(C)C)[C@@H]1OC(=O)C(C)C | 260
45 | N#C[C@@]1(c2ccc3c(N)ncnn23)O[C@H](CO)[C@@H](O)[C@H]1O [GS-441524] | 530

tested on: Respiratory syncytial virus; assay: microbe, parasite or virus in culture; details: human respiratory syncytial virus, Primary bronchial epithelial cell, 72 h

Row | SMILES | EC50 [nM]
46 | C[C@H](NP(=O)(OC[C@H]1O[C@@](C#N)(c2ccc3c(N)ncnn23)[C@H](O)[C@@H]1O)Oc1ccccc1)C(=O)OCC1CCC1 (some centres not stated) | 130
47 | N#C[C@@]1(c2ccc3c(N)ncnn23)O[C@H](CO)[C@@H](O)[C@H]1O [GS-441524] | 1850

— ChEMBL document CHEMBL4823256 (J Med Chem, 2021)
